In PubChem BioAssay (NCI) one finds GI50 and TGI data, which are given here for 16 compounds.

“And” between values parts separate entries of the source, which are not always exact repeats. Identical values can stand only once.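 Assay format: 96-well plates, 48-hour exposure. At the GI50, growth is halved. TGI marks complete inhibition of growth.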

Assay in all cases: inhibition of tumour cell growth, NCI panel, 48 h
Test [1] relates to SNB-75 CNS.
The test system of test [2] is U251 CNS.
Test [3] concerns HCT-15 colon.
In test [4] the test system is RPMI-8226 leukemia.
Test [5] concerns OVCAR-4 ovarian.
For test [6], the system named is COLO 205 colon.
Test [7] has as its system HT29 colon.
The test system of test [8] is SK-MEL-28 melanoma.
Test [9] has as its system SK-MEL-5 melanoma.
In test [10] the test system is SF-539 CNS.

With `COc1cc(C[C@H]2COC(=O)[C@]2(O)Cc2ccc(OCc3ccccc3)c(OC)c2)ccc1OCc1ccccc1`, the GI50 in test [1] was greater than 100 µM; in test [2] it was 23.9 µM; in [3], 19 µM; in [4] it was 71.9 µM; in test [5], greater than 100 µM; in test [6] it was 5.16 µM. Besides, the GI50 was 4.16 µM in test [7], greater than 100 µM in test [8], 13.7 µM in test [9] and 37.6 µM in [10]. The TGI was greater than 100 µM in test [1]; greater than 100 µM in test [2]; greater than 100 µM in [3]; greater than 100 µM in test [4]; greater than 100 µM in [5]; 24.1 µM in [6]. For the same compound, the TGI in test [7] is greater than 100 µM; in test [8], greater than 100 µM; in test [9] it was 37.1 µM; in [10] it was greater than 100 µM.

As to `CC(=O)CC[N+](C)(C)C`, the TGI in [1] stood at 70.3 µM; in [2], 59.9 µM; in [3] it was 46.4 µM; in [4], 26 µM; in [5], 30.2 µM; in test [6] it was 17.5 µM. The TGI in test [7] worked out at 53.5 µM; in test [8], 50 µM; in test [9], 59.6 µM; in test [10] it was 82.9 µM.

Regarding `CCC/C=C/C=C/C(=O)OC1/C(=C/C(=O)OC)CC2CC(C(C)O)OC(=O)CC(O)CC3CC(OC(C)=O)C(C)(C)C(O)(CC4C/C(=C/C(=O)OC)CC(/C=C/C(C)(C)C1(O)O2)O4)O3` (centres undefined), the GI50 in test [1] is 10.3 µM and 2.85 µM and > 12.5 µM; in test [2] it was > 10.9 µM and 7.21 µM and > 12.5 µM; in [3], 5.15 µM and 10.8 µM and > 12.5 µM; in [4], 8.95 µM and > 12.5 µM; in [5], > 6.88 µM and 3.48 µM and > 12.5 µM; in test [7], > 10.9 µM and 5.12 µM and > 12.5 µM. Also, the GI50 in test [8] is 8.54 µM and > 12.5 µM; in [9], 7.86 µM and 1.9 µM and > 12.5 µM; in test [10], greater than 11 µM. Moreover, the TGI in test [1] is 10.9 µM and 9.84 µM and > 12.5 µM; in [2], > 10.9 µM and 9.3 µM and > 12.5 µM; in test [3], 7.35 µM and 11 µM and > 12.5 µM; in [4], > 10.9 µM and 11 µM and > 12.5 µM; in test [5], > 6.88 µM and 10.1 µM and > 12.5 µM; in test [6], 6.88 µM and 11 µM and > 12.5 µM. The TGI is > 10.9 µM and 10.8 µM and > 12.5 µM in [7]; > 10.9 µM and 11 µM and > 12.5 µM in test [8]; 10.9 µM and 11 µM and > 12.5 µM in [9]; greater than 12.5 µM in [10].

With `CN(C)Cc1ccc(NC(=O)c2cncc(C#Cc3cnc(N)c4ncccc34)c2)cc1C(F)(F)F`, the GI50 in test [1] is 1.69 µM; in [2] it was 1.63 µM; in [3], 1.5 µM; in test [4], 1.24 µM; in test [5], 1.16 µM; in [6], 0.293 µM. The GI50 in test [7] is 0.133 µM; in test [8], 0.161 µM; in [9], 1.17 µM; in [10], 1.36 µM. Moreover, the TGI in [1] came out at 3.09 µM; in test [2], 3.13 µM; in test [3], 3.1 µM; in [4], 3.58 µM; in test [5], 2.56 µM; in test [6], 14 µM. The TGI amounted to 1.86 µM in test [7], 1.43 µM in test [8], 2.41 µM in test [9] and 2.66 µM in test [10].

With `O=[N+]([O-])c1ccccc1/C=N\NC(=S)N/N=C/c1ccccc1[N+](=O)[O-]`, the GI50 is 2.21 µM in test [1]; 4.9 µM in test [2]; 3.76 µM in test [3]; 5.91 µM in test [4]; 20.6 µM in [5]; 11.3 µM in test [6]. Besides, the GI50 in test [7] is 4.04 µM; in test [8], 8.44 µM; in test [9], 4.21 µM; in test [10], 4.17 µM. For the same compound, the TGI was 8.75 µM in [1]; greater than 100 µM in [2]; greater than 100 µM in test [3]; greater than 100 µM in test [4]; greater than 100 µM in test [5]; greater than 100 µM in test [6]. The TGI in test [7] was greater than 100 µM; in test [8] it was greater than 100 µM; in [9] it was greater than 100 µM; in test [10], 58.6 µM.

In the case of `COCN1COCN(C)C1=O`, the TGI in test [1], in [2], in test [3], in test [4], in test [5] and in test [6] was greater than 100 µM each time. Further, the TGI in test [7], in [8], in [9] and in test [10] was greater than 100 µM throughout.

In the case of `Nc1[nH]nc(Nc2ccccc2)c1-c1nc2ccccc2s1`, the GI50 in [1] was 2.39 µM; in [2], 2.26 µM; in [3], 1.18 µM; in test [4] it was 2.24 µM; in test [5], 2.19 µM; in [6] it was 1.89 µM. The GI50 is 3.39 µM in test [7], 2.06 µM in test [8], 4.66 µM in [9] and 1.68 µM in test [10]. Also, the TGI in [1] stood at 10.9 µM; in test [2] it was 5.5 µM; in [3], 3.04 µM; in test [4], 6.65 µM; in [5] it was 11.8 µM; in test [6], 3.92 µM. Moreover, the TGI in test [7] was 11.5 µM; in test [8] it was 4.29 µM; in [9], 15.8 µM; in test [10] it was 3.34 µM.

In the case of `OCc1c(-c2cccs2)oc(-c2cccs2)c1CO`, the GI50 in [1] is 69.4 µM; in test [2], 71.9 µM; in test [3] it was 40.1 µM; in [4], 41.5 µM; in test [5], greater than 100 µM; in [6], 35.9 µM. The GI50 in [7] is 41 µM; in test [8], greater than 100 µM; in test [9], 39 µM; in test [10], 50.9 µM. Moreover, the TGI in test [1], in test [2], in test [3], in test [4], in [5] and in test [6] was greater than 100 µM in each case. Also, the TGI in test [7], in [8], in test [9] and in test [10] was greater than 100 µM throughout.

On to `O=[N+]([O-])c1ccc(Sc2cccc[n+]2[O-])c2nonc12`, for which the GI50 in test [1] is 11.1 µM; in [2], 3.56 µM; in [3], 3.03 µM; in test [4] it was 2.12 µM; in test [5], 3.61 µM; in [6], 0.949 µM. Also, the GI50 in test [7] was 3.4 µM; in test [8], 2.47 µM; in [9] it was 5.72 µM; in [10], 19.3 µM. The TGI was 39.6 µM in [1]; 17.6 µM in test [2]; 14.7 µM in test [3]; greater than 100 µM in test [4]; 13.6 µM in [5]; 2.51 µM in test [6]. Besides, the TGI in [7] is 29.4 µM; in test [8], 6.31 µM; in test [9] it was 18.7 µM; in test [10] it was 54.3 µM.

For `COc1ccc2[nH]c3c(C)c4c(c(C)c3c2c1)CN(C)C=C4`, the TGI in test [1] is 0.698 µM; in test [2], 1.45 µM; in test [3], 75.1 µM; in [4], 61.9 µM; in test [5], 18.2 µM; in [6], 10.3 µM. Besides, the TGI in test [7] came out at 22.3 µM; in test [8], 13.5 µM; in [9], 6.75 µM; in [10], 2 µM.

As for `O=c1[nH]c2nc3ccccc3c(=O)n2nc1Cc1ccccc1`, the TGI in [1], in [2], in [3], in [4], in [5] and in test [6] was greater than 100 µM in each case. Further, the TGI in test [7], in test [8], in [9] and in test [10] was greater than 100 µM in each case.

With `CCN1C(=O)N(CC)C2C1NN=c1s/c(=C3\C(=O)Nc4ccccc43)c(=O)n12` (centres undefined), the GI50 in test [1] was less than 0.0447 µM; in test [2] it was 0.556 µM; in [3] it was 0.41 µM; in [4], 0.306 µM; in [5] it was greater than 59.1 µM; in [6], 0.445 µM. Further, the GI50 is 0.374 µM in test [7], 0.891 µM in test [8], 0.426 µM in test [9] and 0.309 µM in test [10]. The TGI is 0.429 µM in test [1]; 21 µM in [2]; greater than 100 µM in test [3]; 6.06 µM in test [4]; greater than 100 µM in [5]; greater than 57.5 µM in [6]. Moreover, the TGI in test [7] was greater than 100 µM; in test [8] it was greater than 100 µM; in test [9], greater than 100 µM; in [10], 1.7 µM.

On to `NCC(=O)Nc1ccc(Cl)cc1C(=O)c1ccc[nH]1`, for which the TGI in [1] is greater than 100 µM; in [2] it was greater than 100 µM; in test [3], greater than 100 µM; in [4], greater than 100 µM; in [5], greater than 94.9 µM; in test [6] it was greater than 100 µM. Further, the TGI in [7], in [8], in test [9] and in test [10] was greater than 100 µM throughout.

`O=S(=O)(F)Cc1ccccc1`: the TGI in [1], in test [2], in [3], in test [4], in test [5] and in test [6] was greater than 100 µM throughout. In addition, the TGI in [7], in test [8], in test [9] and in [10] was greater than 100 µM each time.

On to `O=C1c2ccccc2C(=O)c2c1ccc1conc21`, for which the TGI came out at 20.5 µM in test [1]; 3.14 µM in [2]; 5.66 µM in [3]; 3.85 µM in test [4]; 2.02 µM in test [5]; 12.3 µM in test [6]. Further, the TGI amounted to 13 µM in test [7], 7.94 µM in test [8], 4.83 µM in test [9] and 3.87 µM in [10].

Turning to `COc1ccc(-c2cc(=O)c3c(O)c(O)c(OC)cc3o2)cc1O`, the TGI in test [1], in [2], in test [3], in test [4], in test [5] and in [6] was greater than 100 µM in each case. The TGI in [7], in [8], in test [9] and in [10] was greater than 100 µM each time.
